Legend:
[1] = system: Mycosphaerella graminicola isolate FLU4-02; assay: Fungicide sensitivity testing by OD in 96 well plates, epoxiconazole plus enhancers; type: cell-based; conditions: Zymoseptoria tritici, Enhancer Concentration 0 μg ml^−1 (epoxiconazole alone; one value per enhancer series)
[2] = system: Septoria tritici isolate G3-03; assay: Fungicide sensitivity testing by OD in 96 well plates, fungicides plus Enhancer A.I.1; type: cell-based
[3] = Enhancer A.I.1 Concentration 0 μg ml^−1
[4] = Enhancer A.I.1 Concentration 0.003 μg ml^−1
[5] = Enhancer A.I.1 Concentration 0.016 μg ml^−1
[6] = Enhancer A.I.1 Concentration 0.08 μg ml^−1
[7] = Enhancer A.I.1 Concentration 0.4 μg ml^−1
[8] = Enhancer A.I.1 Concentration 2.0 μg ml^−1
[9] = Enhancer A.I.1 Concentration 10 μg ml^−1

## Fc1ccc([C@]2(Cn3cncn3)O[C@H]2c2ccccc2Cl)cc1 (racemic) [Epoxiconazole]
[1]
  EC50: 0.091 µg/mL
[2]; [3]
  EC50 of the fungicide: 0.142 µg/mL
[2]; [4]
  EC50 of the fungicide: 0.142 µg/mL
[2]; [5]
  EC50 of the fungicide: 0.141 µg/mL
[2]; [6]
  EC50 of the fungicide: 0.145 µg/mL
[2]; [7]
  EC50 of the fungicide: 0.06 µg/mL
[2]; [8]
  EC50 of the fungicide: 0.008 µg/mL
[2]; [9]
  EC50 of the fungicide: 0.004 µg/mL

## CO/C=C(/C(=O)OC)c1ccccc1Oc1cc(Oc2ccccc2C#N)ncn1 [Azoxystrobin]
[2]; [3]
  EC50 of the fungicide: 7.210 µg/mL
[2]; [4]
  EC50 of the fungicide: 7.339 µg/mL
[2]; [5]
  EC50 of the fungicide: 7.071 µg/mL
[2]; [6]
  EC50 of the fungicide: 6.914 µg/mL
[2]; [7]
  EC50 of the fungicide: 6.958 µg/mL
[2]; [8]
  EC50 of the fungicide: 5.157 µg/mL
[2]; [9]
  EC50 of the fungicide: 2.816 µg/mL

## COC(=O)Nc1nc2ccccc2[nH]1 [Carbendazim]
[2]; [3]
  EC50 of the fungicide: >50 µg/mL
[2]; [4]
  EC50 of the fungicide: >50 µg/mL
[2]; [5]
  EC50 of the fungicide: >50 µg/mL
[2]; [6]
  EC50 of the fungicide: >50 µg/mL
[2]; [7]
  EC50 of the fungicide: >50 µg/mL
[2]; [8]
  EC50 of the fungicide: >50 µg/mL
[2]; [9]
  EC50 of the fungicide: >50 µg/mL

## N#Cc1c(Cl)c(Cl)c(Cl)c(C#N)c1Cl [Chlorothalonil]
[2]; [3]
  EC50 of the fungicide: 0.370 µg/mL
[2]; [4]
  EC50 of the fungicide: 0.369 µg/mL
[2]; [5]
  EC50 of the fungicide: 0.357 µg/mL
[2]; [6]
  EC50 of the fungicide: 0.369 µg/mL
[2]; [7]
  EC50 of the fungicide: 0.335 µg/mL
[2]; [8]
  EC50 of the fungicide: 0.36 µg/mL
[2]; [9]
  EC50 of the fungicide: 0.364 µg/mL

## Cc1cc(C2CC2)nc(Nc2ccccc2)n1 [Cyprodinil]
[2]; [3]
  EC50 of the fungicide: 3.055 µg/mL
[2]; [4]
  EC50 of the fungicide: 3.135 µg/mL
[2]; [5]
  EC50 of the fungicide: 2.995 µg/mL
[2]; [6]
  EC50 of the fungicide: 2.838 µg/mL
[2]; [7]
  EC50 of the fungicide: 3.244 µg/mL
[2]; [8]
  EC50 of the fungicide: 4.046 µg/mL
[2]; [9]
  EC50 of the fungicide: 4.220 µg/mL
